# Reference: patent US11851631B2, “Household product delivering cooling sensations” (TAKASAGO INTERNATIONAL CORPORATION, priority 2016, dated 2023)
# What was measured:
# panel of 84 subjects = experiment: Comparison of sensations between isopulegol and menthoxypropanediol (cool sensation in the nose); assay type: in vivo, human; conditions: 3% in triethyl citrate, isopulegol compared to menthoxypropanediol, ANOVA p<0.05
# Method: A panel of 84 subjects was selected to take part in a comparative test between isopulegol (available as Coolact (registered trademark) P) and menthoxypropanediol (CAS 87061-04-9, available as Coolact (registered trademark) 10), both known for their cooling effect on skin.
# The samples of isopulegol and menthoxypropanediol were prepared by dilution to 3% in Triethyl Citrate (TEC).
# Panelists also had to score whether they perceived a cool sensation in the nose, on a scale of +100 (very cool) to −100 (very hot) with 0 (neutral) on the middle of the scale.
# human TRPM8 = molecular target: T1, human TRPM8 (Homo sapiens, UniProt Q7Z2W7); experiment: TRPM8 activation, Fluo-8 calcium fluorescence (FLIPR) in HEK-293 cells; assay type: cell-based; conditions: HEK-293 cells stably transfected with human TRPM8; for EC50: normalised to WS3 EC100
# T1 construct: expressed in transfected cells; host or cells: HEK-293
# Method: HEK-293 (Human Embryonic Kidney) cells stably transfected with human TRPM8 were grown in a culture medium of EMEM (minimum Essential Medium Eagle) with Earl's salts balanced salt solution (Lonza catalogue No BE12-125F), 5 mL of 200 mM Ultraglutamine 1 (Lonza Catalogue No BE17-605E/U1), 5 mL of 100× Penicillin/Streptomycin (Lonza Catalogue No DE17-602E) 50 mL of Fetal bovine serum (Euroclone Cat No ECS0180L) 2 mL of 100 mg/mL Genticin sulphate (G418 sulphate InvivoGen CatAnt-gn-5).
# 10,000 cells/well were seeded in a 384 MTP in complete medium. Then after 24 h the culture medium was manually removed. The cells were loaded with 20 μL/well of 0.5× Fluo-8 NW dye in standard Tyrode's buffer (Screen Quest™ Fluo-8 No wash Calcium assay kit supplied by AAT Bioquest catalogue No 26316) The plate was incubated for 1 h at room temperature in the dark. 10 μL/well of test compounds and controls were injected with the FLIPR^TETRA (Molecular Devices) and the emitted fluorescence signal was recorded at 520 nm for 3 min. The compound multiwall plate contained the samples at 8 different doses in quadruplicate data points. The dose response of the samples were performed starting from 100 mM concentration in 100% DMSO with a serial dilution of 1:2 and then diluted in assay buffer at the final concentration of 100 μM, 50 μM, 25 μM, 12.5 μM, 6 μM, 3 μM, 1.5 μM, and 0.7 μM.
# In the compound plate was also present a dose response of the reference agonist N ethyl-p-menthane-3-carboxamide (WS3) at 8 concentrations and in duplicate. This reference control dosed as 16 wells (duplicates for each concentration) of reference agonist at EC100 correspond to the MAX signal response (100% activity). There were also 16 wells of blanks i.e. assay buffer without either a test sample or reference agonist which correspond to the MIN signal response (0% activity). MAX and MIN controls are used for data analysis (RZ′ calculation) and normalization of compound activity.
# For data analysis the response value is calculated as the maximum signal of the kinetic trace after the injection minus the median of the points before injection and multiplied by the normalization factor (NF). The normalisation factor is the baseline mean of all wells in the plate divided by the baseline of a specific well. […]
# The EC50 of the test samples was then calculated using a curve fitting program available within the data analysis software.
# T1 sequence (Q7Z2W7 whole entry): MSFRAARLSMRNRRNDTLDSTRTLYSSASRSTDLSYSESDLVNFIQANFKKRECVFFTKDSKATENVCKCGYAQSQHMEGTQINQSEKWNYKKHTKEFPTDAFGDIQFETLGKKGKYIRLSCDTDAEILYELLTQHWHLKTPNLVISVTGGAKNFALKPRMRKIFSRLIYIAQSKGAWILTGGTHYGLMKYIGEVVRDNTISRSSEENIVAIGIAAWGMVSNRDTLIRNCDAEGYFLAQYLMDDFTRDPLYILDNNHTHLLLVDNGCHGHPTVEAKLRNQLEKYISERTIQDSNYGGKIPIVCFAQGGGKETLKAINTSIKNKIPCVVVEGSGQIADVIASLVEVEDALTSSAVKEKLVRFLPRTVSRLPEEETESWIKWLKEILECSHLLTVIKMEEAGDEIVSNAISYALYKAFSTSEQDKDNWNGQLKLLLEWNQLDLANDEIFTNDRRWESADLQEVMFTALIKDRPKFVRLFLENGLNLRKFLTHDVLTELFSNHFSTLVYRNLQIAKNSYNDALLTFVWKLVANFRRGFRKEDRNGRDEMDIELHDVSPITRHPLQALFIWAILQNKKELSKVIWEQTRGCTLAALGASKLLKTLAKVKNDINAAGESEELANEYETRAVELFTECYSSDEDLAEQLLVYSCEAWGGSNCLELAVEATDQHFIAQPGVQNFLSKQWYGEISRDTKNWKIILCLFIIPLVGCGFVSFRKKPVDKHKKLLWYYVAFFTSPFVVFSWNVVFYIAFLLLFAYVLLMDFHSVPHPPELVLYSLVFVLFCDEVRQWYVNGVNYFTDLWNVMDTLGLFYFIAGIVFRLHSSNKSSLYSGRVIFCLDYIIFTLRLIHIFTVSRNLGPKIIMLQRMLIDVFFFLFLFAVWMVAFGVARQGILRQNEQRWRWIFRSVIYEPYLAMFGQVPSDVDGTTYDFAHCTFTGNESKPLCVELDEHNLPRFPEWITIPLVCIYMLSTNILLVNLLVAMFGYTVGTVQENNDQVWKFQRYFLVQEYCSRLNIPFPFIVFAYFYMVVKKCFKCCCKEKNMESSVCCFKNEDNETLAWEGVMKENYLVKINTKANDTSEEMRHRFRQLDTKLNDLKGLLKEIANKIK
SMILES,cooling perception in the nose (in words) (panel of 84 subjects),TRPM8 activation (in words) (human TRPM8),EC50 (human TRPM8) [µM]
"C=C(C)[C@@H]1CC[C@@H](C)C[C@H]1O (racemic) [Isopulegol, isopulegol]",improved cooling perception,activate TRPM8,
"CC(C)[C@@H]1CC[C@@H](C)C[C@H]1OCC(O)CO (some centres unmarked) [Menthoxypropanediol, menthoxypropanediol]",,activate TRPM8,7.7
"CCNC(=O)C1CC(C)CCC1C(C)C (centres unmarked) [WS3, N ethyl-p-menthane-3-carboxamide]",,,6
